Patent publication US6489475B2, “Method of producing heterocyclic derivatives” (Sankyo Company, Limited, priority 1994, dated 2002)
Marks after values point to notes of the source that are not given here.

Experiments:
[1] = tested on: plasma; experiment: Plasma lipoperoxidation inhibitory effect (copper sulfate, malondialdehyde by thiobarbituric acid method); type: biochemical, rabbit; details: concentration 10^-5M; 37°C, 3 hours; malondialdehyde production inhibitory ratio
Description: Plasma Lipoperoxidation Inhibitory Effect
The blood was taken from male Japanese white rabbits weighing 2-2.5 kg under anesthesia and heparinized plasma was separated by a conventional method. To the plasma (2.0 ml) was added DMSO or a solution (20 μl, final concentration 10^−5 M) of test compound dissolved in DMSO, and aqueous copper sulfate solution (final concentration 5 mM) was added immediately thereafter. The mixture was incubated at 37° C. for 3 hours. After the completion of the incubation, 20% trichloroacetic acid was added to stop the reaction. Then, the mixture was centrifuged at 4° C., 4,500 rpm for 15 minutes. The lipoperoxide in the supernatant thus obtained was assayed as malondialdehyde upon color development by thiobarbituric acid method. The activity of the test compound was expressed as malondialdehyde production inhibitory ratio (%), namely, the proportion of inhibition of production of malondialdehyde as compared to control.

[2] = tested on: ACAT; experiment: ACAT inhibitory activity (small intestine mucosa microsomes, [1-14C]-oleoyl CoA, cholesteryl oleate production); type: biochemical, rabbit; details: inhibition of cholesteryl oleate production vs control
Description: A high cholesterol feed [a feed added with cholesterol (1%), Clea Japan, Inc.] was fed to male Japanese white rabbits weighing 2-2.5 kg at 100 g per day and the rabbits were bred for 4 weeks. The rabbits were killed by bleeding under anesthesia and small intestine was removed. The mucous membrane of small intestine was peeled, collected and homogenated. The homogenate was centrifuged at 4° C. and 10,000 rpm for 15 min. The obtained supernatant was further centrifuged at 4° C. and 41,000 rpm for 30 minutes to give microsomal fractions. Using this microsomal suspension as an enzyme sample, dimethyl sulfoxide (DMSO, 5 μl) or a test compound dissolved in DMSO (test compound solution, 5 μl), and a reaction substrate [1-^14C]-oleoyl CoA were added to a reaction buffer. After incubation at 37° C. for 5 minutes, a chloroform-methanol mixture was added to stop the reaction. Water was added thereto and mixed, and chloroform layer was separated. The solvent was evaporated to dryness, and the residue was dissolved in hexane. The mixture was subjected to thin layer chromatography using a silica gel plate. The spots of cholesteryl oleate on the silica gel plate were scraped, and quantitatively assayed on a liquid scintillation counter. The ACAT inhibitory activity of the test compound was expressed as a proportion (%) of inhibition of cholesteryl oleate, namely, the proportion of inhibition of cholesteryl oleate production as compared to control.

[3] = tested on: Male Wister rats; experiment: Serum total cholesterol reducing effect in rats on high cholesterol feed; type: in vivo; details: oral, once a day for 3 days, rat
Description: Serum Total Cholesterol Reducing Effect
Male Wister rats weighing 180-200 g were bred under free access to a high cholesterol feed [added with cholesterol (1%), cholic acid (0.5%) and coconut oil (10%), Clea Japan, Inc.] for 3 days, during which period a test compound (10-100 mg/kg) suspended in 5% gum arabic solution was forcibly administered once a day orally for 3 days. Only 5% gum arabic solution was administered to control animals. After final administration, the test animals were fasted for 5 hours and the blood was taken. The serum total cholesterol level was determined using a commercially available assay kit (cholesterol-E-Test Wako, Wako Pure Chemical Industries, Ltd.). The activity of the test compound was expressed as a proportion (%) of reduction of serum total cholesterol level, namely, the proportion of reduction of serum total cholesterol as compared to control.

[4] = tested on: LDL; experiment: LDL peroxidation inhibitory effect (copper sulfate, malondialdehyde by thiobarbituric acid method); type: biochemical, rabbit; details: concentration 10^-5M; 37°C, 24 hours; malondialdehyde production inhibitory ratio
Description: LDL Peroxidation Inhibitory Effect
Male Japanese white rabbits weighing 2-2.5 kg were bred on 100 g per day of a high cholesterol feed [added with cholesterol (1%), Clea Japan, Inc.] for 4 weeks. The blood was taken from carotid and plasma was obtained. Then, LDL was fractionated from the plasma by ultracentrifugation, dialyzed for one day and preserved at 4° C. LDL (400 μg) and aqueous copper sulfate solution (final concentration 5 μM) were added to bufferized Ham F-10 medium (2 ml, GIBCO, USA). DMSO or a solution (20 μl) of test compound dissolved in DMSO was added and the mixture was incubated at 37° C. for 24 hours. After the completion of the incubation, LDL peroxide in medium was allowed to develop color by thiobarbituric acid method and assayed as malondialdehyde. The activity of the test compound was expressed as malondialdehyde production inhibitory ratio (%), namely, the proportion of inhibition of production of malondialdehyde as compared to control.

Row | SMILES | Result of Exp. Ex. 4: plasma lipoperoxidation inhibition [1] [%] | Result of Exp. Ex. 1: ACAT inhibition ([2]; concentration 10^-5M) | Result of Exp. Ex. 2: reduction of serum total cholesterol ([3]; dose 100 mg/kg/day) | Result of Exp. Ex. 3: LDL peroxidation inhibition [4] [%] | Result of Exp. Ex. 2: reduction of serum total cholesterol ([3]; dose 30 mg/kg/day) | Result of Exp. Ex. 2: reduction of serum total cholesterol ([3]; dose 10 mg/kg/day) | Result of Exp. Ex. 1: ACAT inhibition ([2]; concentration 10^-4M)
1 | CCCCCCN1CCc2c1cc(C)c(NC(=O)NCCCC)c2C [Example 1, 1-butyl-3-(1-hexyl-4,6-dimethylindolin-5-yl)urea] | 94.3 | 76.6 ** % | 12.9 *** % | 99.2 |  |  | 
2 | CCCCCCN1CCc2c1cc(C)c(NC(=O)C(C)(C)C)c2C [Example 2, N-(1-hexyl-4,6-dimethylindolin-5-yl)-2,2-dimethylpropanamide] | 95.8 | 59.9 ** % |  | 99.5 |  |  | 
3 | CCCCCCN1CCc2c(C)cc(C)c(NC(=O)NCCCC)c21 [Example 4, 1-butyl-3-(1-hexyl-4,6-dimethylindolin-7-yl)urea] | 92.0 | 94.9 ** % |  | 59.5 | 21.4 ** % |  | 
4 | CCCCC(C)(C)C(=O)Nc1c(C)cc(C)c2c1N(CC)CC2 [Example 6] | 37.4 | 99.8 ** % |  | 24.8 | 53.3 ** % |  | 
5 | CCCCCCN1CCc2c(OC)cc(OC)c(NC(=O)C(C)(C)C)c21 [Example 7] | 86.4 | 96.2 ** % |  | 86.6 | 19.2 ** % |  | 
6 | CCCCN1CCc2c(C)cc(C)c(NC(=O)C(C)(C)C)c21 [Example 8] | 85.1 | 99.7 ** % |  | 91.9 | 48.0 ** % |  | 
7 | CCCCN1CCc2c(C)cc(C)c(NC(=O)C(C)(C)CCCC)c21 [Example 9] | 81.6 | 81.3 ** % |  | 93.7 | 51.3 ** % |  | 
8 | CCCCCCC(C)(C)C(=O)Nc1c(C)cc(C)c2c1N(CCCC)CC2 [Example 10] | 82.6 | 98.7 ** % |  | 18.3 | 55.2 ** % |  | 
9 | CCCCCCCCN1CCc2c(C)cc(C)c(NC(=O)C(C)(C)C)c21 [Example 11] | 78.8 | 99.2 ** % |  | 91.6 |  | 59.5 * % | 
10 | CCCCCCC(C)(C)C(=O)Nc1c(C)cc(C)c2c1N(CC)CC2 [Example 13] | 87.1 | 96.0 ** % |  | 82.4 | 28.4 ** % |  | 
11 | CCCCCCN1CCc2c(C)cc(C)c(NC(=O)C(C)(C)CCCC)c21 [Example 14] | 93.1 | 96.6 ** % |  | 88.3 | 53.9 ** % |  | 
12 | CCCCCCN1CCc2c(C)cc(C)c(NC(=O)C(C)(C)CCCCCC)c21 [Example 15] | 90.1 | 93.1 ** % |  | 12.3 |  | 35.0 * % | 
13 | CCCCCCN1CCc2c(C)cc(C)c(NC(=O)C(C)C)c21 [Example 17] | 91.1 | 96.7 ** % |  | 89.6 |  | 27.0 * % | 
14 | CCCCCCN1CCc2c(C)cc(C)c(NC(=O)CC(C)(C)CC(=O)O)c21 [Example 18] | 87.1 |  |  | 34.0 | 22.3 ** % |  | 69.6 * %
15 | CCCCCCN1CCc2c(C)cc(C)c(NC(=O)C(C)(C)CCC(=O)O)c21 [Example 20] | 91.1 |  |  | 67.8 |  | 7.8 * % | 22.7 * %
16 | CCCCCCN1CCc2c(C)cc(C)c(NC(=O)CCCC)c21 [Example 21] | 91.4 | 94.4 ** % |  | 92.1 |  | 28.3 * % | 
17 | CC(=O)OCCN1CCc2c(C)cc(C)c(NC(=O)C(C)(C)C)c21 [Example 22] | 92.8 | 78.5 ** % | 38.6 *** % | 40.6 |  |  | 
18 | COCCN1CCc2c(C)cc(C)c(NC(=O)C(C)(C)C)c21 [Example 23] | 90.5 | 88.8 ** % |  | 54.8 | 23.6 ** % |  | 
19 | CCOCCN1CCc2c(C)cc(C)c(NC(=O)C(C)(C)C)c21 [Example 24] | 90.5 | 97.1 ** % |  | 42.2 | 28.3 ** % |  | 
20 | Cc1cc(C)c(NC(=O)C(C)(C)C)c2c1CCN2CCCCCC(=O)O [Example 26] | 90.1 | 26.5 ** % |  | 43.3 | 37.4 ** % |  | 
21 | CCCCCCN1CCc2c(C)cc(C)c(NC(=O)C(C)(C)CO)c21 [Example 28] | 91.1 | 79.4 ** % | 20.8 *** % | 92.2 |  |  | 
22 | CCCCCCN1CCc2c(C)cc(C)c(NC(=O)C(C)(C)COC(C)=O)c21 [Example 29] | 91.1 | 86.6 ** % |  | 91.9 | 6.9 ** % |  | 
23 | Cc1cc(C)c(NC(=O)C(C)(C)C)c2c1CCN2CCC(C)C [Example 31] | 90.8 | 93.8 ** % |  | 90.3 | 49.0 ** % |  | 
24 | Cc1cc(C)c(NC(=O)C(C)(C)C)c2c1CCN2CC(C)C [Example 32] | 89.1 | 93.9 ** % |  | 85.3 | 57.4 ** % |  | 
25 | Cc1cc(C)c(NC(=O)N(Cc2ccc3c(c2)Cc2ccccc2-3)C2CCCCCC2)c(C)c1 [YM-750, 1-cycloheptyl-1-[(2-fluorenyl)methyl]-3-(2,4,6-trimethylphenyl)urea, reference compound] |  | 92.3 ** % |  | 0 | 43.8 ** % |  | 
